Results taken from PubChem BioAssay (NCI).
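Here, GI50 denotes the concentration required for 50% inhibition of growth. TGI is the concentration that stops growth completely.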

How the values were obtained:
Experiment in all cases: NCI anticancer screen, dose series, 384-well format
NCI-H522 lung = test system: NCI-H522 lung
SF-268 CNS = test system: SF-268 CNS
CAKI-1 renal = test system: CAKI-1 renal
NCI-H226 lung = test system: NCI-H226 lung
DU-145 prostate = test system: DU-145 prostate
PC-3 prostate = test system: PC-3 prostate
SR leukemia = test system: SR leukemia
SK-MEL-28 melanoma = test system: SK-MEL-28 melanoma
HCT-116 colon = test system: HCT-116 colon
BT-549 breast = test system: BT-549 breast
EKVX NSCLC = test system: EKVX NSCLC
SK-OV-3 ovarian = test system: SK-OV-3 ovarian
U251 glioblastoma = test system: U251 glioblastoma
HL-60(TB) leukemia = test system: HL-60(TB) leukemia
HS 578T breast = test system: HS 578T breast
RPMI-8226 leukemia = test system: RPMI-8226 leukemia
COLO 205 colon = test system: COLO 205 colon
OVCAR-3 ovarian = test system: OVCAR-3 ovarian
ACHN renal = test system: ACHN renal
SNB-75 CNS = test system: SNB-75 CNS
LOX IMVI melanoma = test system: LOX IMVI melanoma
MDA-MB-231 breast = test system: MDA-MB-231 breast
HOP-62 NSCLC = test system: HOP-62 NSCLC
SNB-19 CNS = test system: SNB-19 CNS

SMILES: CCCS(=O)(=O)Nc1ccc(F)c(C(=O)c2c[nH]c3ncc(-c4ccc(Cl)cc4)cc23)c1F
- TGI (NCI-H522 lung): 16 µM
- GI50 (SF-268 CNS): 7.88 µM
- TGI (SF-268 CNS): 15.8 µM
- GI50 (CAKI-1 renal): 3.69 µM
- TGI (CAKI-1 renal): 10.5 µM
- GI50 (NCI-H226 lung): 7.95 µM
- TGI (NCI-H226 lung): 17.2 µM
- GI50 (DU-145 prostate): 5.88 µM
- TGI (DU-145 prostate): 18.6 µM
- GI50 (PC-3 prostate): 8.55 µM
- TGI (PC-3 prostate): 21.3 µM
- GI50 (SR leukemia): 1.67 µM
- TGI (SR leukemia): 4.22 µM
- GI50 (SK-MEL-28 melanoma): 0.0274 µM
- TGI (SK-MEL-28 melanoma): 0.388 µM
- GI50 (HCT-116 colon): 3.85 µM
- TGI (HCT-116 colon): 11.5 µM
- GI50 (BT-549 breast): 5.9 µM
- TGI (BT-549 breast): 19.2 µM
- GI50 (EKVX NSCLC): 7 µM
- TGI (EKVX NSCLC): 12.7 µM
- GI50 (SK-OV-3 ovarian): 5.57 µM
- TGI (SK-OV-3 ovarian): 12 µM
- GI50 (U251 glioblastoma): 4.35 µM
- TGI (U251 glioblastoma): 9.9 µM
- GI50 (HL-60(TB) leukemia): 0.902 µM
- TGI (HL-60(TB) leukemia): 5.03 µM
- GI50 (HS 578T breast): 2.52 µM
- TGI (HS 578T breast): 6.2 µM
- GI50 (RPMI-8226 leukemia): 3.38 µM
- TGI (RPMI-8226 leukemia): 6.5 µM
- GI50 (COLO 205 colon): 0.0425 µM
- TGI (COLO 205 colon): 1.18 µM
- GI50 (OVCAR-3 ovarian): 8.19 µM
- TGI (OVCAR-3 ovarian): 16.1 µM
- GI50 (ACHN renal): 5.39 µM
- TGI (ACHN renal): 19.5 µM
- GI50 (SNB-75 CNS): 5.79 µM
- TGI (SNB-75 CNS): 13.3 µM
- GI50 (LOX IMVI melanoma): 3.93 µM
- TGI (LOX IMVI melanoma): 11.6 µM
- GI50 (MDA-MB-231 breast): 3.8 µM
- TGI (MDA-MB-231 breast): 8.85 µM
- GI50 (HOP-62 NSCLC): 5.12 µM
- TGI (HOP-62 NSCLC): 14.9 µM
- GI50 (SNB-19 CNS): 8.27 µM
- TGI (SNB-19 CNS): 23.4 µM
